Measurements taken from publication PMC8748916, “Microbial enzymes induce colitis by reactivating triclosan in the mouse gastrointestinal tract” (Nature Communications, 2022).
Several values for one entry are separate records, joined by “and”; a condition that tells them apart may be missing. Identical values can stand only once.

How the values were obtained:
[1] = Antibiotic suppression of gut microbiota: kinetics of TCS colonic metabolism after one-time oral gavage; conditions: within the 24-h period; 8 mg/kg TCS oral gavage
[2] = TCS colonic metabolism in conventional vs germ-free Swiss Webster mice; type: in vivo; conditions: 6 h after oral gavage of 8 mg/kg TCS, individual mice
[3] = LC-MS/MS profiling of TCS metabolism in mice (TCS via diet for 4 weeks); conditions: for concentration of free TCS in the colon digesta: mean; for concentration of TCS, TCS-G, TCS-Sulfate: individual mice
MC38 cells = assay: Inflammatory response of MC38 intestinal epithelial cells (Il-6 RT-qPCR, IL-6 ELISA); type: cell-based, mouse
Description: MC38 intestinal epithelial cells were cultured in Dulbecco’s Modified Eagle Medium (DMEM) supplemented with 10% fetal bovine serum (FBS) and incubated at 37 °C under an atmosphere of 5% CO2. MC38 cells were seeded at 20% confluency and left to settle overnight. Cells were then treated with either 1 μM TCS, TCS-G, or vehicle (DMSO). After 48 h, cells were harvested for RT-qPCR analysis. Cell medium was collected for ELISA analysis using the CBA Mouse Inflammation Kit (BD Sciences) according to the manufacturer’s instructions, and data were acquired using a BD LSR Fortessa flow cytometer (BD Biosciences) and analyzed using FlowJo software (Treestar).
(§1) Total RNA of colon tissues and MC38 cells were isolated using Trizol reagent (Ambion) according to the manufacturer’s instruction. RNA was reverse transcribed into cDNA using the High Capacity cDNA Reverse Transcription kit (Applied Biosystem) according to the manufacturer’s instructions. In all, 20 μL PCR reactions were prepared using the Maxima SYBR Green Master Mix (Thermo Fisher Scientific), and qPCR was carried out using a DNA Engine Opticon System (Bio-Rad Laboratories). Mouse-specific primer sequences (Thermo Fisher Scientific) used to detect inflammatory biomarkers are listed in Supplementary Table S6. Gapdh expression was used as an internal control.
a. Cultured murine intestinal epithelial MC38 cells were treated with 1 μM of TCS or TCS-G for 48 h prior to
studying inflammatory responses. b. TCS increases the expression of Il-6, which encodes the pro-inflammatory
n = 3 per group from three independent experiments, * P < 0.05, ** P < 0.01, *** P < 0.001.

[4] = Target engagement: GUSi in colon tissue and TCS to TCS-G ratio in colon digesta by LC-MS/MS; type: in vivo, mice; conditions: TCS-treated mice, no GUSi, individual mice
Description: (§2) After another 3 weeks, the mice were stimulated with 2% DSS (molecular weight = 36–50 KDa, MP Biomedicals, Solon, OH) in drinking water for 6 days to induce colitis. At end of the experiment, the mice were sacrificed for analysis.
Fig. S15. Orally dosed GUSi reaches the mouse colon and suppresses conversion of TCS -G to TCS. a.
mice were stimulated with DSS to induce colitis. The final GUSi was dosed on day 25 and mice were sacrificed
for analysis on day 27. b. GUSi is detected in the mouse colon 2 days after the final dose of the inhibitor. c.
GUSi treatment reduces the ratio of TCS to TCS-G in colon digesta.
per group. NA: no TCS or TCS-G detected.

[5] = Antibiotic suppression of gut microbiota: TCS colonic metabolism in mice (80 ppm TCS diet, 4 weeks); type: in vivo; conditions: 80 ppm TCS via diet 4 weeks; antibiotic cocktail vs none
Source text: This antibiotic composition was used in previous studies by others[20],[21] and us[22],[23]. […] After another 4 weeks, the mice were sacrificed, and their tissues were collected for LC-MS/MS analysis.

DSS-induced colitis = DSS-induced colitis in mice: TCS with or without GUSi (colon length, histology, FACS, qRT-PCR); type: in vivo
Source text: as §2, §1
Distal colon tissues were dissected, washed with cold PBS, and digested with Hank’s balanced salt solution (HBSS, Lonza) supplemented with 1 mM dithiothreitol (DTT) and 5 mM EDTA at 4 °C (colon […] cells). The released cells were stained with FITC-conjugated anti-mouse CD45 (BioLegend, Clone: 30-F11), PerCP/Cy5.5-conjugated anti-mouse F4/80 (BioLegend, Clone: BM8), and PE/Cy7-conjugated anti-mouse Ly-6G/Ly-6C (GR-1) (BioLegend, Clone: RB6-8C5) with a 1:100 diluted solution. Cells were stained with Zombie Violet^TM dye (Zombie Violet^TM Fixable Viability Kit; BioLegend) according to the manufacturer’s instructions to exclude dead cells. Gating and cell identification strategies are as follows: briefly, cell doublets and clumps were eliminated using FSC-A gating and debris was eliminated using FSC-A vs SSC-A. Dead cells were gated out using Zombie Violet™ dye. Flow cytometry data were acquired on a BD LSR Fortessa^TMcell analyzer (Becton Dickinson, Franklin Lakes, NJ) and analyzed using FlowJo software (FlowJo, LLC). Gating strategies used for the identification of major immune cell populations are shown in Supplementary Fig. S17.
The dissected colon tissues were fixed in 10% neutral buffered formalin (Thermo Fisher Scientific) for 48 h. After dehydration, the tissues were embedded in paraffin and sliced ([…]) by Rotary Microtome (Thermo Fisher Scientific). The slices were dewaxed in serial xylene and rehydrated through ethanol solutions, stained with hematoxylin and eosin (Sigma-Aldrich), and images were obtained under 200× magnification (BZ-X700 microscope, Keyence, Itasca, IL). The histologic scores were evaluated by a blinded observer according to the following measures: crypt architecture, degree of inflammatory cell infiltration, muscle thickening, goblet cell depletion, and crypt abscess. The histologic damage score is the sum of each individual score.

[6] = 80 ppm TCS via diet vs vehicle, DSS-induced colitis, without GUSi
[7] = DSS colitis mice, FACS, individual animals, Fig.5d
[8] = DSS colitis mice, gene expression, individual animals, Fig.5e

## Oc1cc(Cl)ccc1Oc1ccc(Cl)cc1Cl [TCS, Triclosan]
[1]
  reduction of AUC in colon digesta by antibiotic treatment: ~ 40%
[2]; CONV Swiss Webster mice
  tcs, tcs-G in colon digesta: 35.08 pmol/mg and 44.23 pmol/mg and 53.2 pmol/mg and 70.03 pmol/mg and 36.57 pmol/mg and 25.88 pmol/mg and 61.48 pmol/mg and 14.87 pmol/mg
[2]; GF Swiss Webster mice
  tcs, tcs-G in colon digesta: 1.71 pmol/mg and 1.97 pmol/mg and 2.79 pmol/mg and 1.05 pmol/mg and 1.69 pmol/mg
[3]; 1 ppm TCS in diet 4 weeks
  concentration of free TCS in the colon digesta: 1.5 pmol/mg tissue
[3]; 10 ppm TCS in diet 4 weeks
  concentration of free TCS in the colon digesta: 14.7 pmol/mg tissue
[3]; 80 ppm TCS in diet 4 weeks
  concentration of free TCS in the colon digesta: 92.2 pmol/mg tissue
[3]; Cecum (digesta), 80 ppm TCS via diet 4 weeks
  concentration of TCS, TCS-G, TCS-Sulfate: 109.26 pmol/mg and 94.56 pmol/mg and 76.97 pmol/mg
[3]; Feces, 10 ppm TCS in diet 4 weeks
  concentration of TCS, TCS-G, TCS-Sulfate: 22.61 pmol/mg and 75.8 pmol/mg
[3]; Feces, 80 ppm TCS in diet 4 weeks
  concentration of TCS, TCS-G, TCS-Sulfate: 290.88 pmol/mg and 142.03 pmol/mg
[3]; Heart, 80 ppm TCS via diet 4 weeks
  concentration of TCS, TCS-G, TCS-Sulfate: 0.98 pmol/mg and 0.71 pmol/mg and 0.63 pmol/mg
[3]; SI 1st section (digesta), 80 ppm TCS via diet 4 weeks
  concentration of TCS, TCS-G, TCS-Sulfate: 15.09 pmol/mg and 9.94 pmol/mg and 15.65 pmol/mg and 19.61 pmol/mg
[3]; SI 2nd section (digesta), 80 ppm TCS via diet 4 weeks
  concentration of TCS, TCS-G, TCS-Sulfate: 19.75 pmol/mg and 18.37 pmol/mg and 9.51 pmol/mg and 14.12 pmol/mg and 15.69 pmol/mg and 13.92 pmol/mg and 18.94 pmol/mg and 9.21 pmol/mg and 13.42 pmol/mg and 3.48 pmol/mg
[3]; SI 3rd section (digesta), 80 ppm TCS via diet 4 weeks
  concentration of TCS, TCS-G, TCS-Sulfate: 29.24 pmol/mg and 24.80 pmol/mg and 7.10 pmol/mg and 13.01 pmol/mg and 17.21 pmol/mg and 23.02 pmol/mg and 19.18 pmol/mg and 15.52 pmol/mg and 17.98 pmol/mg and 27.55 pmol/mg
[3]; SI 4th section (digesta), 80 ppm TCS via diet 4 weeks
  concentration of TCS, TCS-G, TCS-Sulfate: 31.18 pmol/mg and 38.07 pmol/mg and 17.93 pmol/mg and 37.99 pmol/mg and 55.42 pmol/mg and 35.20 pmol/mg and 31.30 pmol/mg and 21.74 pmol/mg and 18.77 pmol/mg and 46.26 pmol/mg
[3]; digesta of the 4th section of the mouse small intestine, 80 ppm TCS via diet 4 weeks
  share of TCS metabolites found: 36.9%
[3]; fecal content, 80 ppm TCS via diet 4 weeks
  share of TCS metabolites found: 99.1%
[3]; gut sections (colon digesta, cecum digesta, feces), 1, 10 and 80 ppm TCS via diet 4 weeks
  share of detected TCS species present as free TCS: 94-100%
MC38 cells; 1 µM, 48 h
  Il-6 gene expression: increased
  medium concentration of IL-6 (ELISA): increased
MC38 cells; MC38 cells, gene expression, replicates
  Il-6 (Fig. S16b): 2.497 and 4.058 and 2.001 and 8.229 and 6.742 and 2.645 and 3.872 and 1.125 and 4.892
MC38 cells; MC38 cells, protein, replicates
  IL-6 (Fig. S16c): 31 pg/mL and 44.92 pg/mL and 38.72 pg/mL and 36.69 pg/mL and 44.27 pg/mL and 53.91 pg/mL and 47.57 pg/mL and 30.74 pg/mL and 39.61 pg/mL
[4]
  TCS/TCSG in colon digesta: 69.2572 and 105.161 and 114.057 and 134.536 and 118.012 and 116.121 and 236.945 and 380.254 and 130.474 and 139.078
[5]
  change of concentration in the fecal content by antibiotic treatment: significantly reduced
DSS-induced colitis; [6]
  colon length: reduced
  colonic infiltration of immune cells (CD45+ leukocytes, CD45+ F4/80+ macrophages, CD45+ Gr1+ neutrophils): enhanced
  crypt damage: more severe
  expression of pro-inflammatory genes (Tnf-a, Mcp-1, Il-6, Il-17, Il-23) in the colon: increased
DSS-induced colitis; [7]
  cd45+(%): 13.9% and 7.52% and 6.6% and 9.17% and 14.3% and 13.5% and 15.4%
  f4/80+ (%): 6.98% and 7.38% and 21.2% and 6.4% and 16.3% and 14.9% and 17.1%
  gr-1+ (%): 6.98% and 5.74% and 9.62% and 14.5% and 6.12% and 11.4% and 10%
DSS-induced colitis; [8]
  Il-6: 2.766 and 2.25 and 1.456 and 1.055 and 1.808 and 1.047
  Il-17: 3.654 and 3.3461 and 1.6638 and 1.675 and 2.194 and 1.456 and 1.44 and 2.099
  Il-23: 1.246 and 3.908 and 1.924 and 1.869 and 2.972 and 1.28 and 1.3835 and 2.162
  Mcp1: 1.522 and 3.593 and 1.038 and 1.619 and 1.9672 and 1.4511
  Tnf-α: 18.081 and 1.569 and 15.9712 and 7.287 and 5.139 and 4.495 and 3.411
DSS-induced colitis; DSS colitis mice, histology score, individual animals, Fig.5c
  HE: 5 and 10 and 8 and 7 and 9
DSS-induced colitis; DSS colitis mice, individual animals, Fig.5b
  colon length (cm): 5.8 cm and 7.1 cm and 7 cm and 6.3 cm and 6.4 cm and 5.3 cm
